From US8450352B2, “Thiazole compounds and their use for inhibiting phosphodiesterase 4, TNF-α, and IL-4” (Otsuka Pharmaceutical Co., Ltd., priority 2004, dated 2013)
Structures can show the parent of a compound that is named as a salt.

What was measured:
[1] = target: T1, human PDE4D (HPDE4D) (Homo sapiens, UniProt Q08499); assay: Confirmatory test for phosphodiesterase (PDE) 4 inhibitory activity; format: biochemical; conditions: concentration that inhibits the PDE4 activity by 50%; PDE4D enzyme solution from transfected COS-7 cells, [3H]cAMP substrate
T1 construct: made in house; host or cells: COS-7 cells (African green monkey kidney), transient transfection; soluble supernatant of the homogenate
Description: Confirmatory Test for Phosphodiesterase (PDE) 4 Inhibitory Activity
(1) Mass Preparation of Plasmids
Plasmids containing genes coding for human PDE4D (HPDE4D) (stored in Otsuka America Pharmaceutical, Inc., Maryland Research Laboratories) were transformed into Escherichia coli, and mass cultured. The plasmids were then purified using EndoFree™ Plasmid Mix Kit (Qiagen).
(2) Mass expression and purification of PDE4D
African green monkey kidney-derived COS-7 cells (RCB 0539) were subcultured in a DMEM medium containing 100 units/ml penicillin, […] streptomycin and 10% FBS. The plasmids prepared in (1) were transfected into the cells, using LipofectAMINE™ 2000 Reagent (hereinafter referred to as “LF2000”, a product of Invitroge), according to the attached protocol. For comparison, pcDNA3.1 was transfected as a control vector. The COS-7 cells were inoculated into 10 cm diameter petri dishes on the day before transfection, so that the cells reached 90% confluence on the day of transfection. Twelve micrograms of the plasmids diluted with 0.9 ml of OPTI-MEM I (Invitrogen) (a plasmid solution; Solution A) and 30 μl of LF2000 diluted with 0.9 ml of OPTI-MEM I (a LF2000 solution; Solution B) were prepared per petri dish, and allowed to stand at room temperature for 5 minutes. Solutions A and B were then mixed together and allowed to stand at room temperature for 20 minutes. The mixture was added to the cultured cells, and incubation was performed overnight at 37° C. in an atmosphere of 5% CO2. The culture medium was changed on the following day, incubation was continued overnight, and the cells were collected by the following procedure. First, the cells were washed once with PBS (Sigma), and 2 ml of Trypsin-EDTA solution (Sigma) was added per petri dish, spread over the dish and removed. The cells were then allowed to stand at 37° C. for 2 to 3 minutes, separated from the petri dish and suspended in a medium. The suspension was placed in a centrifuge tube, and centrifuged at 200×g and 4° C. for 5 minutes. The supernatant was then removed. The cells were further washed with PBS and stored at −80° C. A KHEM buffer (50 mM Hepes, 50 mM KCl, 10 mM EGTA, 1.92 mM MgCl2, pH 7.2) containing 1 mM DTT, 40 μg/ml PMST, 156 μg/ml benzamidine, 1 μg/ml apotinin, 1 μg/ml leupeptin, 1 μg/ml pepstatin A, and 1 μg/ml antipain was added to the cells that had been stored, and the resulting mixture was placed in a glass homogenizer and homogenized on ice. The cell suspension was centrifuged at 100×g and 4° C. for 5 minutes, and the supernatant was further centrifuged at 100,000×g for 1 hour. Thereafter, the supernatant was dispensed into new tubes as a PDE4D enzyme solution, and stored in an ultra-low-temperature freezer. The protein concentration of the PDE4D enzyme solution was then measured.
(3) Determination of Dilution Factor of PDE4D Enzyme Solution
The PDE4D enzyme solution prepared in (2) was diluted 10-, 25-, 50-, 100-, 200-, 400- and 800-fold with 20 mM Tris-HCl (pH 7.4), and the PDE4D activities of the diluted enzyme solutions were measured by the method described in (4) to determine the optimum dilution factor to obtain a PDE4D enzyme solution in which degraded cAMP constituted 10 to 30% of the total cAMP.
(4) Measurement of PDE4D Inhibitory Activity
The necessary amount of each test substance was weighed out and dissolved in 100% DMSO to a concentration of 10 mM. The resulting solutions were stored in a freezer as test substance stock solutions. Before the inhibitory activity measurement, the stock solutions were melted, diluted 2-fold with 100% DMSO to a concentration of 5 mM, and further diluted with 100% DMSO to obtain test substance solutions with 10 graded concentrations. Each test substance solution was added to a 1.2 ml tube containing 23 μl of 20 mM Tris-HCl (pH 7.4). […]

[2] = tested on: TNF-α production; assay: Measurement of TNF-α production inhibitory activity; format: cell-based; conditions: PBMC; concentration that inhibits TNF-α production by 50%; LPS (1 μg/ml)-stimulated human peripheral blood mononuclear cells, 24 hours, ELISA
Procedure: Measurement of TNF-α Production Inhibitory Activity
The following tests were performed to evaluate TNF-α production inhibitory activity.
(1) Separation of Human Peripheral Blood Mononuclear Cells
A peripheral blood sample was obtained from a healthy adult donor who had signed a written informed consent. Thirty milliliters of the blood sample, which had been heparinized, was dispensed into a Leucosep tube (Greiner) containing 16 ml of a lymphocyte separation solution (Nakarai Chemical, Ltd.) under the filter barrier, and centrifuged at 1000×g for 15 minutes.
The intermediate layer corresponding to a mononuclear cell fraction was collected in a 50 ml centrifuge tube, and washed twice with a RPMI 1640 medium. After trypan blue staining, the viable count was determined and adjusted to 2×10^6 cells/ml with RPMI 1640 medium.
(2) Induction of TNF-α Production
E. coli (Serotype 055:B5)-derived LPS, which had been dissolved in a RPMI 1640 medium to a concentration of 5 mg/ml, sterilized by filtration and stored in a freezer, was melted and diluted with a RPMI 1640 medium to 10 μg/ml. The test substances were dissolved in DMSO to obtain solutions with a concentration of […] the final use concentration. One microliter of each of the graded concentration test substance solutions, 149 μl of RPMI 1640 medium, 50 μl of LPS solution (final concentration: 1 μg/ml), 50 μl of fetal bovine serum, and […] of the peripheral blood mononuclear cell suspension were dispensed to each well of a 48-well plate and incubated at 37° C. for 24 hours.
(3) Measurement of TNF-α Concentration
After completion of the incubation, the culture supernatant was collected from each well, and the TNF-α concentration in the supernatant was measured by ELISA method (Human TNF-α Eli-pair, Diaclone).

T1 sequence (Q08499 whole entry): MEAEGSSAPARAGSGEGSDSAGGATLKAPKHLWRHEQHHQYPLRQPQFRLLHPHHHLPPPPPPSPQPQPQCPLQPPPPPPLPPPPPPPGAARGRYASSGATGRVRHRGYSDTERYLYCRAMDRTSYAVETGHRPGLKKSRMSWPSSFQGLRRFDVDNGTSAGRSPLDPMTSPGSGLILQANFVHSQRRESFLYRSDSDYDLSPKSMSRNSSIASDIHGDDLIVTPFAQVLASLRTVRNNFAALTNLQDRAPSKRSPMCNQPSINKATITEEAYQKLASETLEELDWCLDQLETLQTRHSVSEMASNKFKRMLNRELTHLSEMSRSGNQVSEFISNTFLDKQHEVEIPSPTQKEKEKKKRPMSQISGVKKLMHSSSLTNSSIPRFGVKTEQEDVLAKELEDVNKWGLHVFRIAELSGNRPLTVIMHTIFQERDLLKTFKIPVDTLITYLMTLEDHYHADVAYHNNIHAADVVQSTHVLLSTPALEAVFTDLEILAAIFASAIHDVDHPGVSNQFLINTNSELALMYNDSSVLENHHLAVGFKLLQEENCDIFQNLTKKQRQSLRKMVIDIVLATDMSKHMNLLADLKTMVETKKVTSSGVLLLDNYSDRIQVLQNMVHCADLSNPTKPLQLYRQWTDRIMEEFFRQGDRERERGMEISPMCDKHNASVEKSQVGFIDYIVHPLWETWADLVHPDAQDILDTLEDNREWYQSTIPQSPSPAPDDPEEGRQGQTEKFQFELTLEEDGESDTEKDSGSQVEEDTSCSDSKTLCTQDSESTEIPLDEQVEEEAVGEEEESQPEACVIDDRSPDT

| Compound | IC50 [1] [nM] | melting point [°C] | IC50 [2] [nM] |
| --- | --- | --- | --- |
| CCOc1ccc(-c2nc(CCC(=O)c3ncccc3OC)cs2)cc1OCC [Example 88, 3-[2-(3,4-diethoxyphenyl)thiazole-4-yl]-1-(3-methoxypyridine-2-yl)-1-propanone] | 0.4 | 79.2 to 79.7 | – |
| CCOc1ccc(-c2nc(CCC(=O)c3ccccc3)cs2)cc1OCC [Example 91] | – | 113.3 to 113.6 | 543 |
| CCOc1ccc(-c2nc(CCC(=O)c3ccccc3C#N)cs2)cc1OCC [Example 239, 2-{3-[2-(3,4-diethoxyphenyl)thiazole-4-yl]propionyl}benzonitrile] | 9.7 | 113.7 to 114.8 | – |
| CCOc1ccc(-c2nc(CCC(=O)c3ccccc3C(F)(F)F)cs2)cc1OCC [Example 99] | 29 | 91.7 to 93 | – |
| CCOc1ccc(-c2nc(CCCc3ncccc3OC)cs2)cc1OCC.Cl.Cl [Example 238, 2-{3-[2-(3,4-diethoxyphenyl)thiazole-4-yl]propyl}-3-methoxypyridine dihydrochloride] | 7.2 | 169.4 to 171.2 | – |
| CCOc1ccc(-c2nc(CCC(=O)c3ccccc3OCC)cs2)cc1OCC [Example 100] | 2.3 | 84.3 to 86.1 | – |
| CCOc1ccc(-c2nc(CCC(=O)c3ccccc3C)cs2)cc1OCC [Example 107] | 5.8 | 107.1 to 107.4 | – |
| CCOc1ccc(-c2nc(CCC(=O)c3ncccc3OCC)cs2)cc1OCC [Example 87, 3-[2-(3,4-diethoxyphenyl)thiazole-4-yl]-1-(3-ethoxypyridine-2-yl)-1-propanone] | 0.2 | – | – |
| CCOc1ccc(-c2nc(CCC(=O)c3ccc(Cl)cc3OC)cs2)cc1OCC [Example 106] | 5.7 | 102.8 to 104.2 | – |
| CCOc1ccc(-c2nc(CCC(O)c3ncccc3OC)cs2)cc1OCC (centres unmarked) [Example 187, 3-[2-(3,4-diethoxyphenyl)thiazole-4-yl]-1-(3-methoxypyridine-2-yl)-1-propanol dihydrochloride] | 6.6 | – | – |
| CCOc1ccc(-c2nc(/C=C/C(=O)c3ccccc3OC)cs2)cc1OCC [Example 1, (E)-3-[2-(3,4-diethoxyphenyl)thiazole-4-yl]-1-(2-methoxyphenyl)propenone] | 23.6 | 130 to 131 | 8 |
| CCOc1ccc(-c2nc(CCC(=O)c3ccccc3OC)cs2)cc1OCC [Example 89, 3-[2-(3,4-diethoxyphenyl)thiazole-4-yl]-1-(2-methoxyphenyl)-1-propanone] | – | 68.9 to 69.3 | 7 |
